A short description of data set [1]: Metabolite identification in rat plasma, bile, urine and feces by UPLC-QTOF-MSE. The class given is in vivo. The settings on record: rats, RPDQ 48 mg/kg i.g. On the procedure:
For a metabolism study, RPDQ (48 mg/kg, i.g.) was administered to obtain a high concentration of metabolites. […] The pooled plasma sample (500 μL) was then added with methanol (2 mL) to vortex and precipitate proteins. Subsequently, the mixtures were centrifuged (10,000 rpm, 4 °C, 10 min) to obtain the supernatant, which was then evaporated by N2 to obtain the residue. Methanol (100 μL) was used to reconstitute the residue. In order to obtain bile samples, rats were anaesthetized with urethane (1.0 g/kg, intraperitoneal injection). After making an abdominal incision, the bile was collecting by surgically inserting a plastic cannula into the bile ducts. Prior to administration, blank bile was collected for 2 h. After administration, bile samples were collected for 12 h. By using metabolism cages, blank and dosed urine and feces samples were also collected prior to administration or 24 h after administration. After diluting each urine or bile sample (300 μL) with 1 mL of methanol, the mixture was centrifuged (10,000 rpm, 4 °C, 10 min) to obtain the supernatant, which was then evaporated by N2 to obtain the dried urine or bile residue. Methanol (50 μL) was then used to dissolve each residue. After centrifuging (10,000 rpm, 4 °C, 10 min), the clear supernatants were used for the analysis. […] Metabolic characterization of RPDQ was analyzed using UNIFI 1.7.0 software (Waters, Manchester, UK).

For data set [2] the following is noted: cited from earlier work.
The format of data set [3] is in vitro ADME. The conditions noted are these: rat, 100 ng/mL. On the procedure:
RPDQ and 20R-panaxadiol stock methanol solutions (1.00 mg/mL) were all prepared with the reference compounds, respectively. Firstly, blank rat plasma was prepared. The blood samples were collected immediately from the abdominal aorta and incubated at 37 °C for 30 min. The plasma was separated by centrifugation at 4000 rpm for 15 min, and was frozen at −20 °C until analysis. By spiking the dilute solutions with blank rat plasma, calibration curves were plotted to produce the points equivalent to 5, 10, 25, 50, 100, 300, 500, and 1000 ng/mL for RPDQ. […] All the QC and calibration standards samples were prepared freshly before analysis. The specificity, linearity, LLOQ, precision and accuracy, extraction recovery, matrix effect, diluted reliability, and stability of the method were validated by following a non-clinical drug pharmacokinetic study technical guideline (China Food And Drug Administration 2014) and the Bioanalytical Method Validation Guideline (Chinese Pharmacopoeia 2015, Vol. 4). Specificity was assessed by comparing blank plasma samples, plasma was spiked with RPDQ and 20R-panaxadiol, and plasma samples were collected after administration. Linearity was analyzed through weighted regression (1/x^2) of peak area ratios (y) of RPDQ to 20R-panaxadiol versus nominal concentration (x) in plasma. […] The intra- and inter-day precision and accuracy were evaluated with the analysis of six replicate QC samples on three consecutive days, respectively. The extraction recovery and matrix effect at three QC concentrations were assayed. By comparing peak areas of RPDQ and 20R-panaxadiol in extracted QC samples with those in post-extracted blank plasma samples, the recoveries were calculated. Moreover, by comparing the peak area of samples spiked after extraction with that of the neat solution’s equivalent concentration, the matrix effect was then evaluated. Stability was evaluated by analyzing replicate QC samples, which were stored at −20 °C for two weeks at room temperature for 4 h, and experienced three freeze/thaw cycles (from −20 °C to room temperature) on consecutive days. The stabilities of RPDQ in stock solutions at 15 °C and stored in plastic autosampler vials for 16 h at 10 °C were also assessed. Five-fold higher concentrations of QC were achieved by adding moderate RPDQ to blank plasma. The samples were then diluted and analyzed with undiluted calibration standards. The accuracy and precision were within acceptable limits (± 15%).

Setting [4] is: after intragastric administration.

Like-named read-outs stand apart in the source and are kept apart here.

As for `CC1(C)C(O)CCC2(C)C1CCC1(C)C2CC(O)C2C([C@]3(C)CC[C@@H](C(C)(C)O)O3)CC[C@]21C` (stereo partly shown) [pseudoginsengenin DQ], the “Source (samples in which detected: plasma, bile, feces, urine)” value in data set [1] is “P,B, F,U”. Further, the “biological half time (t1/2)” value in data set [2] (setting [4]) was 5.97 h.
In the case of `CC(C)=CCC[C@](C)(O[C@@H]1O[C@H](CO[C@@H]2O[C@H](CO)[C@@H](O)[C@H](O)[C@H]2O)[C@@H](O)[C@H](O)[C@H]1O)[C@H]1CC[C@]2(C)[C@@H]1[C@H](O)C[C@@H]1[C@@]3(C)CC[C@H](O[C@@H]4O[C@H](CO)[C@@H](O)[C@H](O)[C@H]4O[C@@H]4O[C@H](CO)[C@@H](O)[C@H](O)[C@H]4O)C(C)(C)[C@@H]3CC[C@]12C` [Rb1, Ginsenosides Rb1], in data set [2] (setting [4]), the bioavailability – broadly, dose-corrected exposure relative to a reference, in per cent – is given as 0.78% and the “biological half time (t1/2)” value is 9.8 h.
As to `CC(C)=CCCC(C)(O)C1CCC2(C)C1C(O)CC1C3(C)CCC(O)C(C)(C)C3CCC12C` (stereo not shown) [protopanaxdiol], in data set [2] (rat, in vivo, po), the “bioavailability (F)” value was 36.8% and the “elimination half-life (t1/2)” value was 88.8 min.
In the case of `CC1(C)CCCC(C)(C2CC[C@]3(C)C2C(O)CC2C4(C)CCC(O)C(C)(C)C4CCC23C)O1` (stereo partly drawn) [IS, 20R-panaxadiol, reference compound], the Mean concentration is 94.11 ± 3.47 ng/mL in data set [3], 92.34 ± 3.12 ng/mL in data set [3] (4 h), 91.34 ± 2.31 ng/mL in data set [3] (16 h) and 94.74 ± 4.25 ng/mL in data set [3] (14 d). Also, the Accuracy is on record as −5.89% in data set [3] (3 freeze-thaw cycles), −7.66% in data set [3] (4 h), −8.66% in data set [3] (16 h) and −5.26% in data set [3] (14 d).
Consider `CC(C)=CCC[C@](C)(O[C@@H]1O[C@H](CO[C@@H]2OC[C@H](O)[C@H](O)[C@H]2O)[C@@H](O)[C@H](O)[C@H]1O)[C@H]1CC[C@]2(C)[C@@H]1[C@H](O)C[C@@H]1[C@@]3(C)CC[C@H](O[C@@H]4O[C@H](CO)[C@@H](O)[C@H](O)[C@H]4O[C@@H]4O[C@H](CO)[C@@H](O)[C@H](O)[C@H]4O)C(C)(C)[C@@H]3CC[C@]12C` [Rb2], for which, in data set [2] (setting [4]), the bioavailability is 0.08% and the “biological half time (t1/2)” value was 23.1 h.
Regarding `CC(C)=CCC[C@](C)(O[C@@H]1O[C@H](CO[C@@H]2OC[C@@H](O)[C@H](O)[C@H]2O)[C@@H](O)[C@H](O)[C@H]1O)[C@H]1CC[C@]2(C)[C@@H]1[C@H](O)C[C@@H]1[C@@]3(C)CC[C@H](O[C@@H]4O[C@H](CO)[C@@H](O)[C@H](O)[C@H]4O[C@@H]4O[C@H](CO)[C@@H](O)[C@H](O)[C@H]4O)C(C)(C)[C@@H]3CC[C@]12C` [Rb3], in data set [2] (setting [4]), the bioavailability was 0.52% and the “biological half time (t1/2)” value is 21.1 h.
Turning to `CC(C)=CCC[C@](C)(O[C@@H]1O[C@H](CO)[C@@H](O)[C@H](O)[C@H]1O)[C@H]1CC[C@]2(C)[C@@H]1[C@H](O)C[C@@H]1[C@@]3(C)CC[C@H](O)C(C)(C)[C@@H]3[C@@H](O[C@@H]3O[C@H](CO)[C@@H](O)[C@H](O)[C@H]3O)C[C@]12C` [Rg1], the bioavailability in data set [2] (setting [4]) is given as 1.33%.
Take `CC(C)=CCC[C@](C)(O[C@@H]1O[C@H](CO)[C@@H](O)[C@H](O)[C@H]1O)[C@H]1CC[C@]2(C)[C@@H]1[C@H](O)C[C@@H]1[C@@]3(C)CC[C@H](O)C(C)(C)[C@@H]3CC[C@]12C` [CK, Ginsenoside CK]: the bioavailability in data set [2] (setting [4]) was 4.30%.
For the compound `CC(C)=CCC[C@](C)(O)[C@H]1CC[C@]2(C)[C@@H]1[C@H](O)C[C@@H]1[C@@]3(C)CC[C@H](O)C(C)(C)[C@@H]3[C@@H](O[C@@H]3O[C@H](CO)[C@@H](O)[C@H](O)[C@H]3O)C[C@]12C` [Rh1], in data set [2] (setting [4]), the bioavailability is 1.01% and the t1/2 is 25.8 min.

Values taken from paper PMC6222672, “Pharmacokinetic and Metabolism Studies of 12-Riboside-Pseudoginsengenin DQ by UPLC-MS/MS and UPLC-QTOF-MS^E” (Molecules : A Journal of Synthetic Chemistry and Natural …, 2018).
